Measured values: patent US20070093515A1, “Phosphodiesterase 10 inhibitors” (priority 2005, published 2007)

Target: T1, mPDE10A7 (Mus musculus, UniProt Q8CA95)
T1 sequence (Q8CA95 446-763 limits assumed): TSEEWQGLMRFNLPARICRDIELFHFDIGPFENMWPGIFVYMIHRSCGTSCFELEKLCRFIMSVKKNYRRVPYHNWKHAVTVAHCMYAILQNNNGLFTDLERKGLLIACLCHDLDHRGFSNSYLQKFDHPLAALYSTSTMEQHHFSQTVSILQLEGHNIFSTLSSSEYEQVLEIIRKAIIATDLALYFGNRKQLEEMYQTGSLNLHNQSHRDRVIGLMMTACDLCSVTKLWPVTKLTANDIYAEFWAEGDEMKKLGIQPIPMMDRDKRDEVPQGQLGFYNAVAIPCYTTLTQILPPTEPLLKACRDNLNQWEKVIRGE
Assay: mPDE10A7 enzyme inhibition (IMAP fluorescence polarization, fluorescein labeled cAMP or cGMP)
Assay type: biochemical
Description: mPDE10A7 Enzyme Activity and Inhibition
To analyze the enzyme activity, 5 μL of serial diluted mPDE10A7 containing lysate were incubated with equal volumes of diluted (100-fold) fluorescein labeled cAMP or cGMP for 30 minutes in MDC HE 96-well assay plates at room temperature. Both the enzyme and the substrates were diluted in the following assay buffer: Tris/HCl (pH 8.0) 50 mM, MgCl2 5 mM, 2-mercaptoethanol 4 mM, BSA 0.33 mg/mL. After incubation, the reaction was stopped by adding 20 μL of diluted (400-fold) binding reagents and was incubated for an hour at room temperature. The plates were counted in an Analyst GT (Molecular Devices) for fluorescence polarization. An IMAP Assay kit (Molecular Device) was used to assess enzyme properties of mmPDE10A7. Data were analyzed with SoftMax Pro.
To check the inhibition profile, 10 μL of serial diluted compounds were incubated with 30 μl of diluted PDE enzymes in a 96-well polystyrene assay plate for 30 minutes at room temperature. After incubation, 5 μL of the compound-enzyme mixture were aliquoted into a MDC HE black plate, mixed with 5 μl of 100-fold diluted fluorescein labeled substrates (cAMP or cGMP), and incubated for 30 minutes at room temperature. The reaction was stopped by adding 20 μL of diluted binding reagents and counted in an Analyst GT for fluorescence polarization. The data were analyzed with SoftMax Pro.

IC50: 219 nM
SMILES: COCCOc1cccc2c1CCN(c1ncnc3cc(OC)c(OC)cc13)C2=O [2-(6,7-dimethoxyquinazolin-4-yl)-5-(2-methoxyethoxy)-3,4-dihydroisoquinoline-1 (2H)-one]
